The values below come from patent publication US6894072B2, “Compounds as NS3-serine protease inhibitors of hepatitis C virus” (Schering Corporation, priority 2002, dated 2005).

Each structure is given as a SMILES string.

T1 sequence (P27958 1027-1657): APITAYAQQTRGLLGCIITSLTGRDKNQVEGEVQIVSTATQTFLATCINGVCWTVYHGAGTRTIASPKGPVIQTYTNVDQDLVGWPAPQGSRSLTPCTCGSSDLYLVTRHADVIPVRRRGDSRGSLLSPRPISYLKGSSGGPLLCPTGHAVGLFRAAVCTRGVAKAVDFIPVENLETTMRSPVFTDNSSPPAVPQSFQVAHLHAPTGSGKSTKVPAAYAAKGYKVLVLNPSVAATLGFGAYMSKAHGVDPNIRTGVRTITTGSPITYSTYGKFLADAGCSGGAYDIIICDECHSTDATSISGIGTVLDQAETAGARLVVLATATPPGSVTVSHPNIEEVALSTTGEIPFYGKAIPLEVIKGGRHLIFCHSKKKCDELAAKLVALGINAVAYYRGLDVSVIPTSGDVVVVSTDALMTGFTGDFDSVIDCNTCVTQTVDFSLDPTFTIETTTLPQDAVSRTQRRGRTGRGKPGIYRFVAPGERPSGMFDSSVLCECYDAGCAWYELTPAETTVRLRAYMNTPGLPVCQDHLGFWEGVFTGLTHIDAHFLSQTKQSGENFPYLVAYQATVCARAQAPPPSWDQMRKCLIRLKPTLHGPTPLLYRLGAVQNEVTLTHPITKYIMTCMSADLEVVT
T1 sequence (P27958 1658-1711): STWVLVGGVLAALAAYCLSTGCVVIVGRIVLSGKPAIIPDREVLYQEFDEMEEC

The assay has as its target T1, HCV serine protease (Hepatitis C virus genotype 1a, UniProt P27958).
T1 construct: Spectrophotometric assay for the HCV serine protease
The experiment in a line: Spectrophotometric assay for HCV protease inhibitory activity. As to conditions: procedure of WO 02/08244. It counts as biochemical. The protocol:
Assay for HCV Protease Inhibitory Activity: Spectrophotometric Assay: Spectrophotometric assay for the HCV serine protease was performed on the inventive compounds by following the procedure described in PCT Publication No. WO 02/08244 published Jan. 31, 2002. The activity of the compounds in Table 1 is shown in the same Table.
In the case of `CC(C)(C)OC(=O)N[C@H](C(=O)N1CC2C([C@H]1C(=O)NC(CC1CCC1)C(=O)C(=O)N1CCC1)C2(C)C)C1CCCCC1` (stereo partly shown) [Entry 1], the “Activity (binding activity)” value was “A (Binding activity A: <5 μM)”.
For `COC(=O)[C@@H]1CCN1C(=O)C(=O)C(CC1CCC1)NC(=O)[C@@H]1C2C(CN1C(=O)[C@@H](NC(=O)OC(C)(C)C)C1CCCCC1)C2(C)C` (stereo partly shown) [Entry 2], the “Activity (binding activity)” value is listed as “A (Binding activity A: <5 μM)”.
With `CC(C)(C)OC(=O)N[C@H](C(=O)N1CC2C([C@H]1C(=O)NC(CC1CCC1)C(=O)C(=O)N1CC[C@H]1C(=O)O)C2(C)C)C1CCCCC1` (stereo partly shown) [Entry 3], the “Activity (binding activity)” value was “A (Binding activity A: <5 μM)”.
Regarding `CC(C)(C)OC(=O)N[C@H](C(=O)N1CC2C([C@H]1C(=O)NC(CC1CCC1)C(=O)C(=O)N1CC[C@H]1C(=O)OCc1ccccc1)C2(C)C)C1CCCCC1` (stereo partly shown) [Entry 4], the “Activity (binding activity)” value was “A (Binding activity A: <5 μM)”.
